“Also recorded” adds a separate entry of the source.
Assays:
C57BL/6 mice [1] = assay: Photochemical (rose bengal) injury, thrombotic occlusion of the carotid artery; assay type: in vivo, mouse; settings: for time to occlusion of the carotid artery: i.v. bolus 10 min before rose bengal, heparin 0.125 mg/kg, PPACK 12.5 mg/kg, nanoparticles 1 mL/kg; for effect on occlusion time / thrombus formation (in words): photochemical injury, C57BL/6 mice
From the text: As described in previous work, 10-12 week old male C57BL/6 mice (weight 25-30 g) were subjected to photochemical injury of the carotid. After anesthetization with sodium pentobarbital, the mice were secured under a dissecting microscope for isolation of the right common carotid artery via midline cervical incision. An ultrasonic flow probe (model 0.5 VB Transonic Systems, Ithaca, N.Y.) was applied to the artery to measure flow for the duration of each experiment. A 1.5 mW 540 nm HeNe laser (Melles Griot, Carlsbad, Calif.) was focused on the artery at a distance of 6 cm. […] In additional control experiments (n=4), no treatment preceded injection of the rose bengal dye. Occlusion of the carotid artery was noted and experiments were terminated upon the stable (>5 minutes) maintenance of zero flow.

C57BL/6 mice [2] = settings: heparin 0.125 mg/kg, rose bengal model; cited from earlier work
thrombin [3] = biological target: T1, thrombin (Homo sapiens, UniProt P00734); settings: thrombin inhibitor, quoted; cited from earlier work
thrombin [4] = biological target: T1, thrombin; assay: Thrombin inhibition and inhibition kinetics with chromogenic substrate Chromozym TH; assay type: biochemical
Description: Tosyl-Gly-Pro-Arg-4 nitranilide acetate (Chromozym TH, Roche Applied Science) was employed to assay PPACK inhibition of thrombin and plasmin in accordance with previously described methods [31]. 100 μL of 12 nM thrombin was incubated for one minute at room temperature with selected amounts of PPACK or PPACK-nanoparticles or with an excess of bare nanoparticles. 500 μL (100 μM) of the thrombin substrate Tosyl-Gly-Pro-Arg-4 nitranilide acetate were added to terminate the PPACK-thrombin interaction. In accordance with previous work, thrombin activity against the substrate was measured via absorbance at 405 nm. The rate of change in absorbance at 405 nm was taken as representative of the amount of uninhibited thrombin available to cleave Chromozym TH.
In additional experiments, Chromozym TH was used to determine the kinetics of the PPACK-thrombin interaction. […] Thrombin activity was measured as above. Kinetics of inhibition were characterized in accordance with the work of Kettner and Shaw [26]. The assay yielded the apparent pseudo-first-order rate constant for thrombin inactivation (kapp). Modeling inhibition according to equation (1), an estimate of the second order constants (k2/Ki) for the PPACK-thrombin interaction and the PPACK nanoparticle-thrombin interaction were obtained via equation (2). To best obtain a pseudo-first-order reaction, thrombin dilution was maximized within the limits set by the sensitivity of the Chromozym TH assay.

thrombin [5] = biological target: T1, thrombin; settings: literature value; cited from earlier work
mice = settings: cited from earlier work
[6] = in vivo; cited from earlier work
[7] = Stability of the nanoparticle formulation (HPLC of unattached PPACK after storage); assay type: physicochemical; settings: PPACK particles: after dialysis and one week storage at four degrees
Description: To functionalize particles containing 1,2-distearoyl-sn-glycero-3-phosphoethanolamine-N-[carboxy(polyethylene glycol)-2000] with PPACK, amine-carboxyl coupling was employed to conjugate the PPACK N-terminus to the bare carboxyl groups on the synthesized particles. After one hour mixing of 1 mL emulsion with 12.5 mg PPACK, EDCI 1-[3-(Dimethylamino)propyl]-3-ethylcarbodiimide methiodide (2 mg) was added for overnight coupling. Excess PPACK and EDCI were removed by dialysis (MWCO 3000-5000). Particle size was assessed before and after PPACK conjugation as described above. Extent of PPACK coupling was determined by reverse-phase HPLC quantification of uncoupled PPACK after centrifugation of nanoparticles with Cleanascite lipid adsorption reagent (Agilent Technologies). […] PPACK was detected via phenylalanine absorbance (258 nm). Zeta potential measurements, taking into consideration hydrodynamic diameter measurements, were used for further verification of PPACK coupling (Brookhaven Instruments).

Compound: Heparin
- time to occlusion of the carotid artery (C57BL/6 mice [1]): 102 ± 13 min
- effect on occlusion time / thrombus formation (in words) (C57BL/6 mice [1]): formation of a stable thrombus was noticeably delayed
- occlusion time in previous trials (C57BL/6 mice [2]): 97 ± 18 min

Compound: CN[C@H](Cc1ccccc1)C(=O)N1CCC[C@H]1C(=O)N[C@H](C=O)CCCN=C(N)N [Efegatran]
- Ki (thrombin [3]): 1.2 nM

Compound: NC(N)=NCCC[C@H](NC(=O)[C@@H]1CCCN1C(=O)[C@H](N)Cc1ccccc1)C(=O)CCl [PPACK, D-phenylalyl-L-prolyl-L-arginyl-chloromethyl ketone]
- effect on thrombin activity against Chromozym TH (in words) (thrombin [4]): no significant thrombin activity apparent beyond a ten-fold excess
- pseudo-first-order rate constant kapp (thrombin [4]; 0.92 nM thrombin, 5 nM PPACK or 0.3 pM PPACK nanoparticles): 1.824 min⁻¹
- second order constant (k2/Ki), per PPACK (thrombin [4]; free PPACK or PPACK on the particles, 5 nM PPACK): 6.08e+06 M⁻¹ s⁻¹
- decay constant of thrombin activity with inhibitor concentration (thrombin [4]; one-minute incubation, per PPACK concentration): 0.026 nM⁻¹
- time to occlusion of the carotid artery (C57BL/6 mice [1]): 71 ± 19 min
- effect on occlusion time / thrombus formation (in words) (C57BL/6 mice [1]): allowed a steady approach to complete occlusion; also recorded: did not delay occlusion time
- second order constant found by Kettner and Shaw (thrombin [5]): 2e+07 M⁻¹ s⁻¹
- LD50 (mice): greater than 50 mg/kg
- long-term toxicity (mice): no long-term toxicity
- distribution half-life [6]: 7 min
- elimination (clearance) half-life [6]: 2.9 min

Compound: Bivalirudin nanoparticles: Bivalirudin conjugated at the N-terminus to Carboxy-PEG functionalized perfluorocarbon nanoparticles
- stability of the nanoparticle formulation [7]: analogous coupling and stability characteristics
- effect on occlusion time / thrombus formation (in words) (C57BL/6 mice [1]): Bivalirudin nanoparticles did

Compound: Bivalirudin: short synthetic peptide, specific and reversible direct thrombin inhibitor
- effect on thrombin activity against Chromozym TH (in words) (thrombin [4]): less active, but more specific than PPACK
- effect on occlusion time / thrombus formation (in words) (C57BL/6 mice [1]): did not significantly extend occlusion time
